In publication PMC7106896, “Synthesis and biological evaluation of 2-(4-methylsulfonyl phenyl) indole derivatives: multi-target compounds with dual antimicrobial and anti-inflammatory activities” (BMC Chemistry, 2020):
“And” between values parts separate entries of the source, which are not always exact repeats. Equal entries are not always repeated.

Legend:
[1] = tested on: carrageenan-induced rat paw edema; experiment: Carrageenan-induced rat paw edema assay; format: in vivo; details: for Edema thickness (mm) ± SEM: n = 4
Experimental: Pretreatment of rats with compounds 7a–k, 8a–c, and 9a–c before injection with carrageenan in rat paw which induces inflammation and then the percentage of paw edema reduction was measured after certain hours according to previously reported procedures.

[2] = tested on: Candida albicans (ATCC 90028); experiment: Antifungal screening (CO-ADD), growth inhibition at single concentration; format: cell-based; details: ATCC90028, at 32 µg/mL concentration, read-out: growth inhibition % Ca (C. albicans)
Experimental: (§1) The antimicrobial study was performed by CO-ADD (The Community for Antimicrobial Drug Discovery), funded by the Wellcome Trust (UK) and The University of Queensland (Australia). Evaluation of all synthesized compounds for their antimicrobial activities was done against five pathogenic bacteria, methicillin-resistant Staphylococcus aureus (ATCC 43300) as Gram-positive bacteria, Escherichia coli (ATCC 25922), Klebsiella pneumonia (ATCC 700603), Acinetobacter baumannii (ATCC 19606) and Pseudomonas aeruginosa (ATCC 27853) as Gram-negative bacteria and antifungal activity against two pathogenic fungal strains Candida albicans (ATCC 90028) and Cryptococcus neoformans var. grubii (H99; ATCC 208821) (Table 1).

[3] = tested on: Acinetobacter baumannii (ATCC 19606); experiment: Antimicrobial screening (CO-ADD), growth inhibition at single concentration; format: cell-based; details: ATCC19606, at 32 µg/mL concentration, read-out: growth inhibition % Ab (A. baumannii)
Experimental: as §1

[4] = tested on: methicillin-resistant Staphylococcus aureus (ATCC 43300); experiment: as above; format: cell-based; details: ATCC 43300 / MRSA, at 32 µg/mL concentration, read-out: growth inhibition % Sa (MRSA)
Experimental: as §1

[5] = tested on: Pseudomonas aeruginosa (ATCC 27853); experiment: as above; format: cell-based; details: ATCC27853, at 32 µg/mL concentration, read-out: growth inhibition % Pa (P. aeruginosa)
Experimental: as §1

human recombinant COX-2 = experiment: In vitro COX inhibition colorimetric assay; format: biochemical; details: COX-1 IC50/COX-2 IC50
Ovine COX-1 = target: T1, Ovine COX-1 (Ovis aries, UniProt P05979); experiment: In vitro COX inhibition colorimetric assay; format: biochemical
T1 construct: purchased Cayman Chemical, Ann Arbor, MI, USA 760111
T1 sequence (P05979 25-600): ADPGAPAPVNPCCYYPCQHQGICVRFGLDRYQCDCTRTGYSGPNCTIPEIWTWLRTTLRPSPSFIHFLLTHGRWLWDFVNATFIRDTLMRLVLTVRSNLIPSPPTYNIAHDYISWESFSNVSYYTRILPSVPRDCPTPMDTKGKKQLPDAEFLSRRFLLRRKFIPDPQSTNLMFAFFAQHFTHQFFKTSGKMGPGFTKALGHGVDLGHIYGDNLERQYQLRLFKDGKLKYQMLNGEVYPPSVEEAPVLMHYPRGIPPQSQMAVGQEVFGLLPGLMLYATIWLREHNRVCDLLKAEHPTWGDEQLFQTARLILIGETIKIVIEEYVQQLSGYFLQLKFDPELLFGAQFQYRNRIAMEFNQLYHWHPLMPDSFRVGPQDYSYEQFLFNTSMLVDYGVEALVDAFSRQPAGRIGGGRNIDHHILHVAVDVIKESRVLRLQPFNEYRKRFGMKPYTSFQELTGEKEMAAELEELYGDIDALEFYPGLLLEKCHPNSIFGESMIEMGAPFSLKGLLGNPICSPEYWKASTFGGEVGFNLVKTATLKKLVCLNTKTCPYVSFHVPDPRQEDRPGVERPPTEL

[6] = tested on: Klebsiella pneumonia (ATCC 700603); experiment: Antimicrobial screening (CO-ADD), growth inhibition at single concentration; format: cell-based; details: Klebsiella pneumoniae, ATCC700603; at 32 µg/mL concentration; read-out: growth inhibition % Kp (K. pneumoniae)
Experimental: as §1

| SMILES | Edema inhibition % ([1]; 1 h) [%] | Edema thickness (mm) ± SEM ([1]; 1 h) [mm] | Edema inhibition % ([1]; 3 h) [%] | Edema thickness (mm) ± SEM ([1]; 3 h) [mm] | Edema inhibition % ([1]; 6 h) [%] | Edema thickness (mm) ± SEM ([1]; 6 h) [mm] | inhibition at 32 µg/mL [2] [%] | melting point [°C] | inhibition at 32 µg/mL [3] [%] | inhibition at 32 µg/mL [4] [%] | inhibition at 32 µg/mL [5] [%] | Selectivity index (SI) (human recombinant COX-2) | IC50 (Ovine COX-1) [µM] | inhibition at 32 µg/mL [6] [%] |
| --- | --- | --- | --- | --- | --- | --- | --- | --- | --- | --- | --- | --- | --- | --- |
| Cc1ccc(-c2cc(C(F)(F)F)nn2-c2ccc(S(N)(=O)=O)cc2)cc1 [Celecoxib, celecoxib, reference compound] | 68.9 | 0.810 ± 0.074 | 95.5 | 0.100 ± 0.009 | 94.7 | 0.100 ± 0.005 | – | – | – | – | – | – | – | – |
| CS(=O)(=O)c1ccc(NN=Cc2c(-c3ccc(S(C)(=O)=O)cc3)[nH]c3ccccc23)cc1 [Compound 7b, 2-(4-(Methylsulfonyl)phenyl)-3-((2-(4-(methylsulfonyl)phenyl)hydrazono)methyl)-1H-indole] | 76.1 | 0.627 ± 0.045 | 91.2 | 0.196 ± 0.017 | 93.5 | 0.123 ± 0.009 | 9.55 | 228 to 230 | 35.5 | 25.6 | 3.8 | 124.10 | 12.4 | – |
| Cc1ccc2[nH]c(-c3ccc(S(C)(=O)=O)cc3)c(/C=N/Nc3ccc(S(C)(=O)=O)cc3)c2c1 [Compound 7d, 5-Methyl-2-(4-(methylsulfonyl)phenyl)-3-((2-(4-(methylsulfonyl)phenyl) hydraz-ono)methyl)-1H-indole] | 51.6 | 1.270 ± 0.015 | 77.5 | 0.502 ± 0.044 | 78.6 | 0.405 ± 0.018 | 2.54 | 262 to 264 | 35 | 15.6 | – | 69.33 | 10.4 | 4.86 |
| Cc1ccc2[nH]c(-c3ccc(S(C)(=O)=O)cc3)c(/C=N/Nc3ccc(S(N)(=O)=O)cc3)c2c1 [Compound 7e, 4-(2-((5-Methyl-2-(4-(methylsulfonyl)phenyl)-1H-indol-3-yl)methylene) hydrazine-yl) benzenesulfonamide] | 53.9 | 1.209 ± 0.11 | 71.1 | 0.645 ± 0.01 | 79.9 | 0.381 ± 0.007 | 28.7 | 186 to 188 | 43.6 | 7.58 | – | 31.29 | 9.7 | – |
| Cc1ccc2[nH]c(-c3ccc(S(C)(=O)=O)cc3)c(C=NNc3ccc(F)cc3)c2c1 [Compound 7f, 3-((2-(4-Fluorophenyl)hydrazono)methyl)-5-methyl-2-(4-(methylsulfonyl)phenyl)-1H-indole] | 60.5 | 1.036 ± 0.009 | 72.7 | 0.609 ± 0.03 | 79.2 | 0.394 ± 0.01 | 3.5 | 159 to 161 | 66.7 | 8.33 | – | 57.23 | 9.73 | 8.05 |
| CS(=O)(=O)c1ccc(N/N=C/c2c(-c3ccc(S(C)(=O)=O)cc3)[nH]c3ccc(F)cc23)cc1 [Compound 7h, 5-Fluoro-2-(4-(methylsulfonyl)phenyl)-3-((2-(4-(methylsulfonyl)phenyl) hydraz-ono)methyl)-1H-indole] | 75.4 | 0.645 ± 0.058 | 89.4 | 0.236 ± 0.008 | 92.7 | 0.138 ± 0.006 | 25.3 | 187 to 188 | 51.8 | 30.3 | 7.97 | 112.7 and 112.72 | 12.4 | 23.6 |
| CS(=O)(=O)c1ccc(-c2[nH]c3ccc(F)cc3c2C=NNc2ccc(F)cc2)cc1 [Compound 7j, 5-Fluoro-3-((2-(4-fluorophenyl)hydrazono)methyl)-2-(4-(methylsulfonyl)phenyl)-1H-indole] | 64.3 | 0.936 ± 0.064 | 78.6 | 0.477 ± 0.027 | 71 | 0.549 ± 0.013 | 1.91 | 200 to 202 | 46.2 | 30.6 | – | 98.18 | 10.8 | 12.3 |
| CS(=O)(=O)c1ccc(-c2[nH]c3ccccc3c2-c2nc3cc(Cl)ccc3[nH]2)cc1 [Compound 8a, 5-Chloro-2-(2-(4-(methylsulfonyl)phenyl)-1H-indol-3-yl)-1H-benzo[d]imidazole] | 52.5 | 1.246 ± 0.076 | 58 | 0.937 ± 0.046 | 56.4 | 0.826 ± 0.078 | 7.71 | 210 to 212 | – | 13.6 | – | 81.84 | 10.6 | – |
| Cc1ccc2[nH]c(-c3ccc(S(C)(=O)=O)cc3)c(-c3nc4cc(Cl)ccc4[nH]3)c2c1 [Compound 8c, 5-Chloro-2-(5-methyl-2-(4-(methylsulfonyl)phenyl)-1H-indol-3-yl)-1H-benzo[d]imidazole] | 67.9 | 0.842 ± 0.062 | 71.9 | 0.627 ± 0.05 | 74.2 | 0.489 ± 0.032 | 1.65 | 217 to 219 | – | 4.62 | – | 93.58 | 11.2 | – |
| CS(=O)(=O)c1ccc(-c2[nH]c3ccccc3c2C=NO)cc1 [Compound 9a, 2-(4-(Methylsulfonyl)phenyl)-1H-indole-3-carbaldehyde oxime] | 77.2 | 0.598 ± 0.050 | 61.8 | 0.852 ± 0.073 | 62.3 | 0.714 ± 0.052 | 9.15 | 199 to 201 | 42.1 | – | 2.49 | 81.84 | 10.6 | 14.8 |
| Cc1ccc2[nH]c(-c3ccc(S(C)(=O)=O)cc3)c(C=NO)c2c1 [Compound 9c, 5-Methyl-2-(4-(methylsulfonyl)phenyl)-1H-indole-3-carbaldehyde oxime] | 55.2 | – | 68.6 | 0.435 ± 0.033 | 61.7 | 0.504 ± 0.009 | 4.88 | 212 to 214 | 33.7 | – | – | 34.33 | 8.24 | 1.19 |
| COc1ccc2c(c1)c(CC(=O)O)c(C)n2C(=O)c1ccc(Cl)cc1 [Indomethacin, indomethacin, reference compound] | 70.7 | 0.768 ± 0.050 | 96 | 0.075 ± 0.007 | 96.6 | 0.075 ± 0.004 | – | – | – | – | – | – | – | – |
